How the values were obtained:
FoxO3a = FoxO3a inhibition assay (GFP-FoxO3a nuclear to cytoplasmic translocation) in U2OS GFP-FoxO3a H212R reporter cells; type: cell-based; details: Homo sapiens, 0.5 h, serum starved overnight, 30 minutes compound treatment, ratio of nuclear to cytosolic GFP intensity, AC50 = concentration that results in 50% activation or inhibition, read-out: FoxO AC50
Protocol: (§1) Phosphorylation of Akt on S473 and FoxO3a nuclear to cytoplasmic translocation were used as readouts of PI3K/Akt/mTOR pathway activation downstream of growth factor signaling.
(§2) Reporter cell line. U2OS GFP-FoxO3a H212R reporter cell line was established by transducing U2OS cells with the retroviral plasmid pLEGFP-C1 containing FoxO3a H212R transgene and selecting for G418 resistant clones.
(§3) Reporter assay. U2OS GFP-FoxO3a H212R cells were plated in 384-well plates at 4000 cells per well in 30 microliters of McCoy's 5A medium containing 10% FBS. On day 1 the cells were washed with serum free medium and serum starved overnight. On day 2 the cells were treated with different doses of the compounds for 30 minutes, fixed with 4% Paraformaldehyde for 1 hour and stained with Phospho-AKT (Ser473) antibody (Cell Signaling Technology, catalog #4060) overnight at 4° C. After nuclei staining with Hoechst 33342 (Life Technologies, catalog # H3570) the plates were imaged with InCell 2000 (GE Healthcare Bio-Sciences). FoxO3a inhibition activity is calculated as the ratio of nuclear to cytosolic GFP intensity in percent. Akt activation is measured as the total cellular intensity of Phospho-Akt antibody staining in percent. DMSO control is set as 0% activity.

Akt = Akt activation assay (Phospho-AKT (Ser473) antibody staining) in U2OS GFP-FoxO3a H212R reporter cells; type: cell-based; details: Homo sapiens, 0.5 h, serum starved overnight, 30 minutes compound treatment, total cellular intensity of Phospho-Akt (Ser473) antibody staining, AC50 = concentration that results in 50% activation or inhibition
Protocol: as §1, §2, §3

Structure (SMILES) | AC50 (FoxO3a) | AC50 (Akt)
Cc1cc(C(N)=O)nn1-c1ccc(C(C)(C)c2ccc(-c3cccc(S(C)(=O)=O)c3)cc2)cc1 [Example 6-2, 5-methyl-1-(4-(2-(3′-(methylsulfonyl)-[1,1′-biphenyl]-4-yl)propan-2-yl)phenyl)-1H-pyrazole-3-carboxamide] | 480 nM | 1810 nM
Cc1nc(C(N)=O)nn1-c1ccc(Cc2ccc(-c3ccc(CN4CCC[C@H]4CO)cc3)cc2)cc1 [Example 39-38] | 48 nM | 119 nM
Cc1nc(C(N)=O)nn1-c1ccc(C(C)(C)c2ccc(-c3ccc(CN4CCCC4)cc3)cc2)cc1 [Example 13-1, 5-methyl-1-(4-(2-(4′-(pyrrolidin-1-ylmethyl)-[1,1′-biphenyl]-4-yl)propan-2-yl)phenyl)-1H-1,2,4-triazole-3-carboxamide] | 128 nM | 375 nM
Cc1nc(C(N)=O)nn1-c1ccc(Cc2ccc(-c3ccc(CN4CCC(F)(F)C4)cc3)cc2)cc1 [Example 38-2] | 48 nM | 230 nM
Cc1nc(C(N)=O)nn1-c1ccc(Cc2ccc(-c3ccc(CN4CC[C@H](O)C4)cc3)cc2)cc1 [Example 39-5] | 8 nM | 22 nM
Cc1cc(C(N)=O)nn1-c1ccc(C(C)(C)c2ccc(C3=CCC(O)CC3)cc2)cc1 (stereo not shown) [Example 9, 1-(4-(2-(4′-hydroxy-2′,3′,4′,5′-tetrahydro-[1,1′-biphenyl]-4-yl)propan-2-yl)phenyl)-5-methyl-1H-pyrazole-3-carboxamide] | 253 nM | 532 nM
Cc1nc(C(N)=O)nn1-c1ccc(Cc2ccc(-c3ccc(C(=O)NCC(C)(C)O)cc3)cc2)cc1 [Example 51, 1-(4-((4′-((2-hydroxy-2-methylpropyl)carbamoyl)-[1,1′-biphenyl]-4-yl)methyl)phenyl)-5-methyl-1H-1,2,4-triazole-3-carboxamide] | 102 nM | 300 nM
Cc1cc(C(N)=O)nn1-c1ccc(Cc2ccc(-c3ccc(C4(O)COC4)nc3)cc2)cc1 [Example 22, 1-(4-(4-(6-(3-hydroxyoxetan-3-yl)pyridin-3-yl)benzyl)phenyl)-5-methyl-1H-pyrazole-3-carboxamide] | 42 nM | 187 nM
Cc1cc(C(N)=O)nn1-c1ccc(Cc2ccc(-c3ccc4c(c3)CNC4)cc2)cc1 [Example 3-4, 1-(4-(4-(isoindolin-5-yl)benzyl)phenyl)-5-methyl-1H-pyrazole-3-carboxamide] | 75 nM | 268 nM
Cc1nc(C(N)=O)nn1-c1ccc(C(C)(C)c2ccc(-c3ccc4ccncc4c3)cc2)cc1 [Example 13-5] | 147 nM | 446 nM
Cc1nc(C(N)=O)nn1-c1ccc(C(C)(C)c2ccc(-c3ccc4nccnc4c3)cc2)cc1 [Example 13-4] | 429 nM | 1240 nM
Cc1cc(C(N)=O)nn1-c1ccc(Cc2ccc(-c3ccc(CN4CCC[C@H]4CO)cc3)cc2)cc1 [Example 16-1, (S)-1-(4-((4′-((2-(hydroxymethyl)pyrrolidin-1-yl)methyl)-[1,1′-biphenyl]-4-yl)methyl)phenyl)-5-methyl-1H-pyrazole-3-carboxamide] | 33 nM | 90 nM
Cc1nc(C(N)=O)nn1-c1ccc(Cc2ccc(-c3ccc(CN4CC[C@@H](O)C4)cc3)cc2)cc1 [Example 39-4] | 26 nM | 92 nM
Cc1nc(C(N)=O)nn1-c1ccc(Cc2ccc(-c3ccc(CN4CCN(C)[C@@H](C)C4)nc3)cc2)cc1 [Example 37, (S)-1-(4-(4-(6-((3,4-dimethylpiperazin-1-yl)methyl)pyridin-3-yl)benzyl)phenyl)-5-methyl-1H-1,2,4-triazole-3-carboxamide] | 276 nM | 498 nM
Cc1cc(C(N)=O)nn1-c1ccc(C(C)(C)c2ccc(-c3ccc(C4(N)COC4)cc3)cc2)cc1 [Example 12, 1-(4-(2-(4′-(3-aminooxetan-3-yl)-[1,1′-biphenyl]-4-yl)propan-2-yl)phenyl)-5-methyl-1H-pyrazole-3-carboxamide] | 93 nM | 283 nM
Cc1cc(C(N)=O)nn1-c1ccc(Cc2ccc(-c3ccccc3)cc2)cc1 [Example 3-8, 1-(4-([1,1′-biphenyl]-4-ylmethyl)phenyl)-5-methyl-1H-pyrazole-3-carboxamide] | 383 nM | 960 nM
Cc1nc(C(N)=O)nn1-c1ccc(Cc2ccc(-c3ccc(CN4CC5(COC5)C4)cc3)cc2)cc1 [Example 38-4] | 62 nM | 207 nM
Cc1cc(C(N)=O)nn1-c1ccc(Cc2ccc(-c3ccc(CC4CCCN4CO)cc3)cc2)cc1 (stereo not shown) [Example 16-7] | 9 nM | 24 nM

Structure (SMILES) | AC50 (FoxO3a) | AC50 (Akt)
Cc1cc(C(N)=O)nn1-c1ccc(Cc2ccc(-c3ccc(CN4CCCCC4)cc3)cc2)cc1 [Example 16-6] | 103 nM | 248 nM
Cc1nc(-c2ccc(Cc3ccc(-n4nc(C(N)=O)cc4C)cc3)cc2)ccc1C(C)(C)O [Example 20, 1-(4-(4-(5-(2-hydroxypropan-2-yl)-6-methylpyridin-2-yl)benzyl)phenyl)-5-methyl-1H-pyrazole-3-carboxamide] | 91 nM | 208 nM
Cc1cc(C(N)=O)nn1-c1ccc(Cc2ccc(-c3ccc(C(C)(C)O)cn3)cc2)cc1 [Example 19, 1-(4-(4-(5-(2-hydroxypropan-2-yl)pyridin-2-yl)benzyl)phenyl)-5-methyl-1H-pyrazole-3-carboxamide] | 71 nM | 209 nM
Cc1cc(C(N)=O)nn1-c1ccc(Cc2ccc(-c3ccc(CN4CCC(N(C)C)CC4)cc3)cc2)cc1 [Example 40, 1-(4-((4′-((4-(dimethylamino)piperidin-1-yl)methyl)-[1,1′-biphenyl]-4-yl)methyl)phenyl)-5-methyl-1H-pyrazole-3-carboxamide] | 32 nM | 146 nM
Cc1nc(C(N)=O)nn1-c1ccc(C(C)(C)c2ccc(-c3cnn(C)c3)cc2)cc1 [Example 13-8] | 664 nM | 1750 nM
Cc1cc(C(N)=O)nn1-c1ccc(Cc2ccc(-c3ccc(CNCCO)cc3)cc2)cc1 [Example 16-2] | 138 nM | 426 nM
Cc1nc(C(N)=O)nn1-c1ccc(Cc2ccc(-c3ccc(CN4CCC5(CCO5)CC4)cc3)cc2)cc1 [Example 39-37] | 81 nM | 270 nM
Cc1nc(C(N)=O)nn1-c1ccc(C(C)(C)c2ccc(-c3ccc4ncccc4c3)cc2)cc1 [Example 13-3] | 311 nM | 943 nM
Cc1cc(C(N)=O)nn1-c1ccc(Cc2ccc(-c3ccc(CN(C)C)nc3)cc2)cc1 [Example 5-3, 1-(4-(4-(6-((dimethylamino)methyl)pyridin-3-yl)benzyl)phenyl)-5-methyl-1H-pyrazole-3-carboxamide] | 136 nM | 425 nM
Cc1nc(C(N)=O)nn1-c1ccc(Cc2ccc(-c3ccc(C(=O)N4CCNCC4)cc3)cc2)cc1 [Example 25, 5-methyl-1-(4-((4′-(piperazine-1-carbonyl)-[1,1′-biphenyl]-4-yl)methyl)phenyl)-1H-1,2,4-triazole-3-carboxamide] | 135 nM | 726 nM
Cc1cc(C(N)=O)nn1-c1ccc(C(C)(C)c2ccc(-c3ccc(CN4CCCC4)cc3)cc2)cc1 [Example 6-1, 5-methyl-1-(4-(2-(4′-(pyrrolidin-1-ylmethyl)-[1,1′-biphenyl]-4-yl)propan-2-yl)phenyl)-1H-pyrazole-3-carboxamide] | 115 nM | 292 nM
Cc1cc(C(N)=O)nn1-c1ccc(Cc2ccc(-c3ccc4c(c3)CCN(C)C4)cc2)cc1 [Example 3-3, 5-methyl-1-(4-(4-(2-methyl-1,2,3,4-tetrahydroisoquinolin-6-yl)benzyl)phenyl)-1H-pyrazole-3-carboxamide] | 40 nM | 109 nM
Cc1nc(C(N)=O)nn1-c1ccc(Cc2ccc(C#CC3CCN(C)CC3)cc2)cc1 [Example 54, 5-methyl-1-(4-(4-((1-methylpiperidin-4-yl)ethynyl)benzyl)phenyl)-1H-1,2,4-triazole-3-carboxamide] | 248 nM | 528 nM
Cc1cc(C(N)=O)nn1-c1ccc(Cc2ccc(-c3ccc(S(=O)(=O)CCO)cc3)cc2)cc1 [Example 17, 1-(4-((4′-((2-hydroxyethyl)sulfonyl)-[1,1′-biphenyl]-4-yl)methyl)phenyl)-5-methyl-1H-pyrazole-3-carboxamide] | 29 nM | 101 nM
Cc1cc(C(N)=O)nn1-c1ccc(Cc2ccc(-c3ccc(CN4CCCC4)cc3)cc2)cc1 [Example 3-1, 5-methyl-1-(4-((4′-(pyrrolidin-1-ylmethyl)-[1,1′-biphenyl]-4-yl)methyl)phenyl)-1H-pyrazole-3-carboxamide] | 36 nM | 135 nM
Cc1nc(C(N)=O)nn1-c1ccc(Cc2ccc(-c3ccc(C(C)(C)CO)cc3)cc2)cc1 [Example 48, 1-(4-((4′-(1-hydroxy-2-methylpropan-2-yl)-[1,1′-biphenyl]-4-yl)methyl)phenyl)-5-methyl-1H-1,2,4-triazole-3-carboxamide] | 51 nM | 160 nM
Cc1nc(C(N)=O)nn1-c1ccc(Cc2ccc(-c3ccc(C(=O)N4CCN(C)CC4)cc3)cc2)cc1 [Example 15-3] | 60 nM | 188 nM

From US10633350B2, “Diphenyl derivatives and uses thereof” (NOVARTIS AG, priority 2017, dated 2020)
